# PMC12106395, “HmuY proteins of the Porphyromonas genus show diversity in heme-binding properties” (Frontiers in Cellular and Infection Microbiology, 2025)
# Assays:
# [1] = molecular target: T1, HusA^Pg (Porphyromonas gingivalis, UniProt Q7MSY3); experiment: UV-visible difference absorbance spectroscopy; format: binding; details: 5 uM protein, 5 uM PPIX, PBS pH 7.4, room temperature; complex seen by spectroscopy only
# T1 construct: gene PG_2227; 8xHis-MBP tag cut off with Factor Xa; E. coli host; strain of the plasmid only in supplement (W83 is the BLAST query strain)
# [2] = molecular target: T2, HmuY^Bf-2 (Bacteroides fragilis, UniProt Q5LGH3); experiment: UV-visible difference absorbance spectroscopy; semi-denaturing PAGE with fluorescence detection; format: binding; details: 5 uM protein, 5 uM PPIX, PBS pH 7.4, room temperature
# T2 construct: gene BF9343_0985; 8xHis-MBP tag cut off with Factor Xa; E. coli host
# T2 sequence (Q5LGH3 entry or part of it): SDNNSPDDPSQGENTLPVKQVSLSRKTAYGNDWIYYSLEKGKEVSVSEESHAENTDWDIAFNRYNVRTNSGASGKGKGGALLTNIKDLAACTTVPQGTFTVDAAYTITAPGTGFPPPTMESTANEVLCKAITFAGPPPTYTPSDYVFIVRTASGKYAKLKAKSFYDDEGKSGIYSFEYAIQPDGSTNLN
# T1 sequence (Q7MSY3 entry or part of it): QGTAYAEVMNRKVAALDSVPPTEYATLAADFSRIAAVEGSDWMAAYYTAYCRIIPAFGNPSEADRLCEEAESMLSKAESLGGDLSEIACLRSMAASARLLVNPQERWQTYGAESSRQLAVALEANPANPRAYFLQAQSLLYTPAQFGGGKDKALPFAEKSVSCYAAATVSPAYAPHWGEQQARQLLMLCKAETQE
structure (smiles),measurement,setting,value
C=CC1=C(C)c2cc3[nH]c(cc4nc(cc5[nH]c(cc1n2)c(C)c5CCC(=O)O)C(CCC(=O)O)=C4C)c(C)c3C=C [PPIX],UV-visible difference absorbance spectroscopy,[1],"HmuY^Bf-2, which, similar to HusA^Pg, binds both heme and PPIX"
same,UV-visible difference absorbance spectroscopy; semi-denaturing PAGE with fluores,[2],PPIX binding by HmuY^Bf-2 were detected after electrophoretic separation of proteins and porphyrins
